The text below walks through data of patent US20020115640A1, “Farnesyltransferase inhibitors” (priority 2000, published 2002).

T1 sequence (Q02293 whole entry, one chain of several): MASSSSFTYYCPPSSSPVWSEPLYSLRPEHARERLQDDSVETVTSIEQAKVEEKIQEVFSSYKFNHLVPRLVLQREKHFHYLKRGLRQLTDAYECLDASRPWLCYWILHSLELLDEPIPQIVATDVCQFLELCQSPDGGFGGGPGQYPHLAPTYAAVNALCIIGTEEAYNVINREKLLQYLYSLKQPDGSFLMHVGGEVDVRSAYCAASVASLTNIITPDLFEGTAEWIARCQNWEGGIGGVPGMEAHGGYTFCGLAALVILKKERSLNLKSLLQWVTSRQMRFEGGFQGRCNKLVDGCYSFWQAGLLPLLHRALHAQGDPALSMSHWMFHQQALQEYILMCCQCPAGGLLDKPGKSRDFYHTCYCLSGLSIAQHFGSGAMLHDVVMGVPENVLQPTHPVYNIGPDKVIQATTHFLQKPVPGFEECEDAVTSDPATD

One test has as its target T1, farnesyltransferase (Rattus norvegicus, UniProt Q02293+Q04631).
T1 construct: The enzyme can be purified according to Cell, 62: 81-88 (1990), utilizing steps one, two, and three; from tissue; host or cells: rat brain
As to the kind of experiment: Inhibition of farnesyltransferase (3H-farnesyldiphosphate / H-Ras filter assay). Conditions: test compound at 10^−8 M; 3H-farnesyldiphosphate 0.6 μM, H-Ras 5.0 μM, 37° C., 30 minutes. Type of test: biochemical.
`COc1cccc(-c2cc(C#N)ccc2N(C)CC(O)(c2ccc(C#N)cc2)c2cncn2C)c1` (centres unmarked) [Example 84, 6-((2-(4-cyanophenyl)-2-hydroxy-2-(1-methyl-1H-imidazol-5-yl)ethyl)(methyl)amino)-3′-methoxy-1,1′-biphenyl-3-carbonitrile]: 0.01 µM produced 92% inhibition. Same read-out and setting: the result for `COc1cccc(-c2cc(C#N)ccc2N(C)CC(F)(c2ccc(C#N)cc2)c2cncn2C)c1` (centres unmarked) [Example 85, 6-((2-(4-cyanophenyl)-2-fluoro-2-(1-methyl-1H-imidazol-5-yl)ethyl)(methyl)amino)-3′-methoxy-1,1′-biphenyl-3-carbonitrile] reads 65%.

`CN(CC(O)(c1ccc(C#N)cc1)c1cncn1C)c1ccc(C#N)cc1-c1ccc(OC(F)(F)F)cc1` (centres unmarked) [Example 86, 6-((2-(4-cyanophenyl)-2-hydroxy-2-(1-methyl-1H-imidazol-5-yl)ethyl)(methyl)amino)-4′-(trifluoromethoxy)-1,1′-biphenyl-3-carbonitrile] had an inhibition at 0.01 µM of 94%.

As to `Cc1ccnc(NC(=O)c2cc(C#N)ccc2COC(c2ccc(C#N)cc2)c2cncn2C)c1` (centres unmarked) [Example 87, 5-cyano-2-(((4-cyanophenyl)(1-methyl-1H-imidazol-5-yl)methoxy)methyl)-N-(4-methylpyridin-2-yl)benzamide], 0.01 µM produced 91% inhibition. In turn, `Cn1cncc1C(OCc1ccc(C#N)cc1C(=O)Nc1cccc(Cl)c1)c1ccc(C#N)cc1` (centres unmarked) [Example 88, N-(3-chlorophenyl)-5-cyano-2-(((4-cyanophenyl)(1-methyl-1H-imidazol-5-yl)methoxy)methyl)benzamide] displayed an inhibition at 0.01 µM of 90%.

As to `CCCn1cc(-c2cc(C#N)ccc2COC(c2ccc(C#N)cc2)c2cncn2C)ccc1=O` (centres unmarked) [Example 91, 4-(((4-cyanophenyl)(1-methyl-1H-imidazol-5-yl)methoxy)methyl)-3-(6-oxo-1-propyl-1,6-dihydropyridin-3-yl)benzonitrile], the inhibition at 0.01 µM turned out to be 77%. As for `CCCOc1ccc(-c2cc(C#N)ccc2COC(c2ccc(C#N)cc2)c2cncn2C)cn1` (centres unmarked) [Example 92, 4-(((4-cyanophenyl)(1-methyl-1H-imidazol-5-yl)methoxy)methyl)-3-(6-propoxypyridin-3-yl)benzonitrile], the inhibition at 0.01 µM is 94%.

Staying with this test, now noted: test compound at 10^−9 M (stated in the cell); 3H-farnesyldiphosphate 0.6 μM, H-Ras 5.0 μM, 37° C., 30 minutes.
`Cn1cncc1C(OCc1ccc(C#N)nc1-c1ccc2c(c1)OC(F)(F)O2)c1ccc(C#N)cc1` (centres unmarked) [Example 89, 5-(((4-cyanophenyl)(1-methyl-1H-imidazol-5-yl)methoxy)methyl)-6-(2,2-difluoro-1,3-benzodioxol-5-yl)pyridine-2-carbonitrile] came in with an inhibition at 0.001 µM of 75%.
